Tests used:
EC d4 [1] = assay: DNA fiber spreading assay; format: cell-based, mouse; conditions: EC d4 48 h; HU: 5 mM, 1 h
Procedure: (§1) To analyze DNA replication fork progression, the DNA fiber spreading assay was performed. Briefly, cells were pulse-labeled with 20 µM CldU (20 min, 37 °C, 5% C0_2) and immediately afterwards with 200 µM IdU (20 min, 37 °C, 5% C02). Cell suspension was applied onto glass slides followed by cell lysis (0.5% SDS, 200 mM Tris–HCl, 50 mM EDTA). After incubation (6 min, RT), slides were tilted upwards to stretch the fibers, dried 6 min lying horizontally flat and fixed (5 min, RT) in methanol: acetic acid (3:1). After drying (7 min, lying horizontally flat) slides were stored overnight in 70% ethanol (4 °C). The next day samples were incubated in 100% methanol (5 min, RT) followed by denaturation in 2.5 M HCl (1 h, RT) and blocking (5% BSA in PBS, 1 h, 37 °C). DNA Fibers were stained with rat anti-BrdU (1:40) for CldU detection and mouse anti-BrdU (1:70) for IdU detection (in 0.5% BSA/PBS; 1 h, RT). After washing (0.05% Tween 20 in PBS and PBS) incubation with secondary antibodies anti-rat 488 (1:400) and anti-mouse 555 (1:250) was performed (1 h, RT, 0.5% BSA in PBS). Following washing with 0.05% Tween 20 in PBS and PBS, the slides were mounted with Fluoroshield (Sigma [Steinheim, Germany]). DNA fibers were analyzed microscopically (Olympus BX43 fluorescence microscope [40 objective]). The length of CldU (green) and IdU (red) tract was measured using ImageJ software, analyzing 200 fibers per experimental condition.

EC d6 [2] = assay: DNA fiber spreading assay; format: cell-based, mouse; conditions: EC d6 24 h; HU: 5 mM, 1 h
Procedure: as §1

mESC [3] = assay: DNA fiber spreading assay; format: cell-based, mouse; conditions: mESC 24 h; HU: 5 mM, 1 h
Procedure: as §1

EC d4 [4] = assay: Beta-galactosidase staining (senescence); format: cell-based, mouse; conditions: EC d4 48 h
Procedure: (§2) Beta-galactosidase activity was analyzed using the Cellular Senescence Assay Kit (Cell Biolabs, Inc., San Diego, CA, USA) according to the manufacturer’s instructions. After treatment and/or post-incubation period, the cells were fixed and stained (overnight, 37 °C). For control, untreated cells were incubated with working solution containing citrate-Na2HPO4 buffer at pH 4. The cells were analyzed by light microscopy (Axiovert 40 C, Carl Zeiss AG, 20x objective) and the fraction of beta-galactosidase positive (blue) cells was calculated (5 images per sample).

EC d6 [5] = assay: Beta-galactosidase staining (senescence); format: cell-based, mouse; conditions: EC d6 24 h + 24 h post incubation
Procedure: as §2

mESC [6] = assay: EdU incorporation (S-phase activity); format: cell-based, mouse; conditions: mESC 24 h
Procedure: S-phase activity of cells was monitored by measuring EdU incorporation using the EdU-Click 488 assay according to the manufacturer’s protocol. Briefly, cells were pulse-treated with 5-ethynyl-2′-deoxyuridine (EdU) for 3 h. Alexa Fluor 488-conjugated reaction cocktail was added (30 min, RT) and nuclei were counterstained with DAPI. The percentage of EdU-positive area/DAPI-positive area was calculated by fluorescence microscopy (Olympus BX43, 20x objective).

[7] = system: primary murine cardiac endothelial cells; assay: RT-qPCR mRNA expression; format: cell-based, mouse
Procedure: Total RNA was purified using the RNeasy Mini Kit (Qiagen, Hilden, Germany). Reverse transcriptase (RT) reaction was performed with the HighCapacity cDNA Reverse Transcription Kit (Applied Biosystems, Darmstadt, Germany) using 900–2000 ng of RNA. Quantitative RT-qPCR analysis was performed using following conditions: (1) 95 °C–10 min; (2) 45 amplification cycles with 95 °C–15 s, 55 °C–15 s, and 72 °C–17 s; (3) 95 °C–1 min, 55 °C–1 min, 65 °C–5 s. If not stated otherwise, analyses were performed in technical triplicates using pooled samples from two independent experiments (each performed with biological duplicates) by use of a CFX96 cycler (BioRad) and the SensiMix SYBR Kit (Bioline, London, UK). The primers used for mRNA expression analyses are listed in Supplementary Table 1. To ensure the specificity of the amplification product, melting curves were recorded at the end of the run. mRNA expression levels were normalized to β-Actin and Gapdh. Relative mRNA expression in mESC or corresponding untreated controls was set to 1.0. Only changes in gene expression of ≤ 0.5- and ≥ 2-fold were considered as biologically relevant. Fold-changes in gene expression are summarized in Supplementary Table 2.

EC d4 [8] = assay: Mitochondrial membrane potential (TMRM-MitoTracker Green); format: cell-based, mouse; conditions: EC d4 treated 48 h, analysed in EC d6; Dox 0.05 µM
Procedure: Mitochondrial membrane potential (ΔΨm) was analyzed by live-cell imaging using TMRM-MitoTracker Green co-staining. Cells were seeded and differentiated on Poly-D-Lysine-fibronectine-coated live-imaging dishes. For staining, cells were incubated with 200nM MitoTracker Green (Invitrogen) and 50 nM TMRM (Invitrogen) in DMEM (30 min, 37 °C, 5% CO2). After washing with PBS, live-cell microscopy was performed using a spinning disc confocal microscope (PerkinElmer) equipped with a 60x oil-immersion objective (N.A = 1.49) and a Hamamatsu C9100 camera (1000 × 1000 pixel) (excitation (MitoTracker Green): 488 nm, excitation (TMRM): 561 nm). The cells were kept at 37 °C in OptiMEM supplemented with 10 mM HEPES during imaging. The images were obtained at emission wavelength of 527 nm (W55) and 615 nm (W70) for 488 nm and 561 nm excitation, respectively.

EC d4 [9] = assay: Doxorubicin import/export (flow cytometry); format: cell-based, mouse; conditions: EC d4, 2 h pulse then 6 h post-incubation
Procedure: Import and export of Dox were examined via flow cytometry. […] Trypsinized cells were washed with PBS and pelleted by centrifugation (200 x g, 5 min, 4 °C). After additional washing, cells were resuspended in PBS.

mESC [10] = assay: Alkaline comet assay; conditions: mESC 24 h
EC d4 [11] = assay: Alkaline comet assay; conditions: EC d4 48 h
EC d6 [12] = assay: Nuclear γH2AX / 53BP1 foci (DSB); conditions: EC d6 24 h, equitoxic concentrations

Nc1ccccc1NC(=O)c1ccc(CNC(=O)OCc2cccnc2)cc1 [EST, entinostat]
replication fork progression (EC d4 [1]): opposite effects | replication fork progression (EC d6 [2]): opposite effects | replication fork progression (mESC [3]): promoted new DNA strand synthesis | percentage of beta-Gal-positive cells (EC d4 [4]): increase | percentage of beta-Gal-positive cells (EC d6 [5]): increase

O=c1c2ccccc2nc(/C=C/c2cccnc2)n1Cc1ccccc1 [B02]
number of EdU-positive cells (mESC [6]): not

COc1cccc2c1C(=O)c1c(O)c3c(c(O)c1C2=O)C[C@@](O)(C(=O)CO)C[C@@H]3O[C@H]1C[C@H](N)[C@H](O)[C@H](C)O1 [Dox, doxorubicin]
Ccn1a mRNA ([7]; 1 µM, 24 h, Fig 7E): 0.52 Fold of untreated control | Ccnd2 mRNA ([7]; 1 µM, 24 h, Fig 7E): 2.92 Fold of untreated control | Cdkn1a mRNA ([7]; 1 µM, 24 h, Fig 7E): 12.45 Fold of untreated control | Cdkn2a mRNA ([7]; 1 µM, 24 h, Fig 7E): 2.56 Fold of untreated control | Cxc1 mRNA ([7]; 1 µM, 24 h, Fig 7E): 10.16 Fold of untreated control | E2f1 mRNA ([7]; 1 µM, 24 h, Fig 7E): 0.54 Fold of untreated control | Glb1 mRNA ([7]; 1 µM, 24 h, Fig 7E): 2.10 Fold of untreated control | Il6 mRNA ([7]; 1 µM, 24 h, Fig 7E): 16.90 Fold of untreated control | Il8 mRNA ([7]; 1 µM, 24 h, Fig 7E): 2.54 Fold of untreated control | Mmp3 mRNA ([7]; 1 µM, 24 h, Fig 7E): 1.42 Fold of untreated control | Mybl2 mRNA ([7]; 1 µM, 24 h, Fig 7E): 0.053 Fold of untreated control | Tp53 mRNA ([7]; 1 µM, 24 h, Fig 7E): 1.66 Fold of untreated control | upregulation of Il6, Cxc1 and Cdkn1a mRNA ([7]; Dox 24 h): about 10 fold | number of EdU-positive cells (mESC [6]): significant drop | replication fork progression (EC d6 [2]): did not influence fork speed | replication fork progression (mESC [3]): accelerated fork progression | mitochondrial membrane potential (EC d4 [8]): strongest drop in mitochondrial membrane potential | percentage of beta-Gal-positive cells (EC d4 [4]): increase | percentage of beta-Gal-positive cells (EC d6 [5]): increase | Dox efflux capacity as compared to the other differentiation stages (EC d4 [9]): enhanced export activity | steady-state level of SSB (alkaline comet assay) (mESC [10]): significant increase | steady-state level of SSB (alkaline comet assay) (EC d4 [11]): no or only a minor increase | DSB formation (γH2AX / 53BP1 foci) (EC d6 [12]): significant increase

Reference: publication PMC13308190, “Endothelial progenitor cell susceptibility to DNA damaging and DDR-modulating compounds determines endothelial differentiation accuracy” (Stem Cell Research & Therapy, 2026)
